How the values were obtained:
[1] = target: T1, Tyrosinase (Mus musculus) (UniProt P11344); assay: Inhibition of tyrosinase activity in mouse B16/F10 cells at 10 ppm relative to control; assay type: cell-based
T1 sequence (whole entry): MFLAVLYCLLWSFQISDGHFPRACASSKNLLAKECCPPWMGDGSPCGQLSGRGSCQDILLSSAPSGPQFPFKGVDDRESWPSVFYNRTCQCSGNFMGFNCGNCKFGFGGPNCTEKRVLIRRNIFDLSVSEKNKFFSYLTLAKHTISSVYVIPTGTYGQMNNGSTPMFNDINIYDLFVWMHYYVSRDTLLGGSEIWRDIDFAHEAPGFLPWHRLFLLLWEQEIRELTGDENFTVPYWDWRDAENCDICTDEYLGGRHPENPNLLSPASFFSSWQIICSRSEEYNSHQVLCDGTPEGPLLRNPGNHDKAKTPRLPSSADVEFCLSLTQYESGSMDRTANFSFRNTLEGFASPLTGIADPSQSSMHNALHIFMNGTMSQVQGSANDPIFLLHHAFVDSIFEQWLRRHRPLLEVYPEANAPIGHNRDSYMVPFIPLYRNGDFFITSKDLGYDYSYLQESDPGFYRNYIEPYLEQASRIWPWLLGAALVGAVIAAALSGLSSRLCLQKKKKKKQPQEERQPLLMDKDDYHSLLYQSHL

B16-F10 [2] = assay: Inhibition of rate of melanin formation in mouse B16/F10 cells at 10 ppm relative to control; assay type: functional
[3] = Toxicity against mouse B16/F10 cells assessed as cell viability at 10 ppm relative to control; assay type: cell-based; details: read-out: Activity
[4] = Anti-aging activity in human dermal fibroblasts assessed as inhibition rate of MMP1 expression at 10 uM relative to control; assay type: functional; details: Fibroblast
[5] = Toxicity against mouse B16/F10 cells assessed as cell viability at 5 uM relative to control; assay type: cell-based; details: read-out: Activity
[6] = target: T1, Tyrosinase (Mus musculus); assay: Inhibition of tyrosinase activity in mouse B16/F10 cells at 5 uM relative to control; assay type: cell-based
B16-F10 [7] = assay: Inhibition of rate of melanin formation in mouse B16/F10 cells at 5 uM relative to control; assay type: functional
[8] = Anti-aging activity in human dermal fibroblasts assessed as rate of procollagen formation at 0.0005 weight % concentration relative to retinol; assay type: functional, Fibroblast
Fibroblast [9] = assay: Skin whitening activity in […] assessed as inhibition of melanin formation at 0.001 weight % concentration relative to resveratrol; assay type: functional
[10] = Toxicity against human dermal fibroblasts; assay type: cell-based, Fibroblast
[11] = Toxicity against human dermal fibroblasts assessed as cell viability at 10 uM relative to control; assay type: cell-based, Fibroblast; details: read-out: Activity
[12] = Anti-aging activity in human dermal fibroblasts assessed as expression rate of procollagen type 1 formation at 10 uM relative to control; assay type: functional, Fibroblast
[13] = Anti-aging activity in human dermal fibroblasts assessed as rate of procollagen formation at 0.002 weight % concentration relative to retinol; assay type: functional, Fibroblast
Fibroblast [14] = assay: Skin whitening activity in […] assessed as inhibition of melanin formation at 0.002 weight % concentration relative to resveratrol; assay type: functional
[15] = Thermal stability at 40 degC assessed as compound degradation after 4 weeks by HPLC; assay type: physicochemical; details: read-out: Activity
Fibroblast [16] = assay: Increase of collagen synthesis in human dermal fibroblasts at 5 uM; assay type: functional
[17] = Anti-aging activity in human dermal fibroblasts assessed as rate of procollagen formation at 0.0001 weight % concentration relative to retinol; assay type: functional, Fibroblast
[18] = Toxicity against human dermal fibroblasts assessed as cell viability at 1 uM relative to control; assay type: cell-based, Fibroblast; details: read-out: Activity
[19] = Anti-aging activity in human dermal fibroblasts assessed as inhibition rate of MMP1 expression at 1 uM relative to control; assay type: functional; details: Fibroblast
[20] = Anti-aging activity in human dermal fibroblasts assessed as expression rate of procollagen type 1 formation at 1 uM relative to control; assay type: functional, Fibroblast
[21] = Anti-aging activity in human dermal fibroblasts assessed as rate of procollagen formation at 0.001 weight % concentration relative to retinol; assay type: functional, Fibroblast

SMILES	inhibition [6] [%]	viability at 5 µM [5] [%]	inhibition at 5 µM (B16-F10 [7]) [%]	Activity [8] [%]	inhibition (INH) (Fibroblast [9]) [%]	IC50 [10] [µM]	also measured
COc1cc(/C=C/C(=O)Oc2cc(C)ccc2C(C)C)cc(OC)c1OC							inhibition [1]: 46.9%; inhibition at 10 ppm (B16-F10 [2]): 39.3%; viability at 10 ppm [3]: 95.4%
CC(/C=C/C1=CCCCC1(C)C)=C\C=C\C(C)=C\COC(=O)c1ccccc1O						150	Activity [13]: 46%; inhibition (INH) (Fibroblast [14]): 34%
CC1=C(/C=C/C(C)=C/C=C/C(C)=C/CO)C(C)(C)CCC1 [RETINOL]						50	degraded at 672 h [15]: 70%; Activity (Fibroblast [16]): 33.4%
CC(/C=C/C1=CCCCC1(C)C)=C\C=C\C(C)=C\COC(=O)c1cc(O)c2ccccc2c1O				37	18	420	
CC(/C=C/C1=CCCCC1(C)C)=C\C=C\C(C)=C\COC(=O)c1ccc(O)cc1O					41	120	Activity [21]: 26%
COc1ccc(O)c(C(=O)OC/C=C(C)/C=C/C=C(C)/C=C/C2=CCCCC2(C)C)c1					30	570	Activity [21]: 81%

Further lines, with some results ahead:

inhibition [6] [%]	SMILES	viability at 5 µM [5] [%]	inhibition at 5 µM (B16-F10 [7]) [%]	Activity [8] [%]	inhibition (INH) (Fibroblast [9]) [%]	IC50 [10] [µM]	also measured
41.9	COc1cc(O)c(C(=O)OC/C=C(C)/C=C/C=C(C)/C=C/C2=CCCCC2(C)C)c(O)c1	102	9.5	55	95	14	inhibition at 10 µM [4]: -17.4%; viability at 10 µM [11]: 92.6%; Activity [12]: 89.2%
36.7	CC(/C=C/C1=CCCCC1(C)C)=C\C=C\C(C)=C\COC(=O)c1cccc(O)c1O	97	18.6		105	< 10	Activity [17]: 66%; viability at 1 µM [18]: 71.8%
45.4	CC(/C=C/C1=CCCCC1(C)C)=C\C=C\C(C)=C\COC(=O)c1c(O)cccc1O	102	12.7	102	112	14	inhibition at 1 µM [19]: -63%; viability at 1 µM [18]: 88.1%; Activity [20]: 85.5%
38.1	COc1cccc(C(=O)OC/C=C(C)/C=C/C=C(C)/C=C/C2=CCCCC2(C)C)c1O	107	16.2	116	22	27	inhibition at 10 µM [4]: 16.9%; viability at 10 µM [11]: 126%; Activity [12]: 70%
